Measurements reported in US10596103B2, “Drug delivery system for delivery of anti-virals” (Merck Sharp & Dohme B.V., priority 2013, dated 2020).

Assay: Solubility of vicriviroc in EVA by partitioning experiments
Assay type: physicochemical
Method: The solubility of vicriviroc in EVA was determined by partitioning experiments. A small sample of polymer film (approximately 10 mg) was immersed in a saturated aqueous vicriviroc solution (5 mL PBS buffer pH 7). Once the film was immersed the drug diffused from the saturated solution into the film until an equilibrium was achieved. As a result the drug concentration of the aqueous solution decreased and the drug concentration in the film increased. The decrease of the drug concentration in the aqueous solution was continuously measured with a fiber optic probe (Rainbow Dynamic Dissolution Monitor).

Vicriviroc loading above which supersaturation occurs (in EVA 28): above 1.4 % by weight
Solubility of vicriviroc in EVA 28 (polymer film in saturated aqueous vicriviroc solution, PBS buffer pH 7, FIG. 14): 1.2-1.4 wt %
Structure (SMILES): COC[C@@H](c1ccc(C(F)(F)F)cc1)N1CCN(C2(C)CCN(C(=O)c3c(C)ncnc3C)CC2)C[C@@H]1C [vicriviroc]
